In US20190062684A1, “Microfluidic System for Reproducing Functional Units of Tissues and Organs In Vitro” (NORTIS, INC., priority 2012, published 2019):

Test system: vascular-cell tube (engineered from primary human microvascular endothelial cells)

Q: O=C(O)c1ccccc1-c1c2cc(F)c(=O)cc-2oc2cc(O)c(F)cc12 [Oregon Green] was tested. Which “average permeability through the vascular-cell tube wall” value did it give?
A: 25 ×10⁻⁶ cm/s
